From US5434295A (priority 1994, dated 1995)
“Also recorded” adds a separate entry of the source.

What was measured:
[1] = Lipophilicity / solubility (statement); assay type: physicochemical
Protocol: (§1) Sci., 82, 1069-1079 (1993).
Several NMDA receptor blockers were tested. These compounds have […] and have to be dissolved in 100% dimethyl sulfoxide (DMSO) and diluted for use in ND-96 that contained 1% DMSO. Therefore, the effect of 1% DMSO on the response to 10^-4 M NMDA and 5×10^-6 M glycine was examined. DMSO had no effect on NMDA response in three different cells.

[2] = tested on: intraocular pressure (IOP); test: Ocular hypotensive activity (intraocular pressure) in albino rabbits; assay type: in vivo, albino rabbit; conditions: for Max ΔIOP: ** drug vs. vehicle P < 0.01
Protocol: Bicyclic compounds of the present invention were also tested for IOP lowering effects.
as §1
The phospholipids and HU-259 were dissolved in the stabilized oily phase. The other excipients were dissolved in the aqueous phase. Both phases were heated separately to 70° C. and dispersed by a magnetic stirrer. Emulsification was completed using a "high speed mixer" for 5 min at 85° C. The resulting emulsion was cooled rapidly below 20° C. and homogenized using a two-stage homogenizing valve assembly (Gaulin Homogenizer, APV Gaulin, Hilversum, The Netherlands) for 5 min. All the manufacturing procedures were carried out under aseptic conditions and a nitrogen atmosphere. The pH was adjusted to 7.4 using a sodium hydroxide solution (10%). The final fine emulsion was filtered to achieve sterility and stored in ampoules. A typical formulation (%, w/w) consisted of the following: HU-259, 0.2%; oily phase, 20.0%; purified fractionated egg phospholipids, 1.2%; nonionic emulsifier, 2%; glycerin, 2.25%; α-tocopherol, 0.02%; methyl and butyl p-hydroxy- benzoic ester, 0.3 and 0.075%, respectively; and water for injection, to 100.0 g. The control emulsion vehicle was prepared using identical experimental conditions but without drug.
IOP was measured by using a pneumatonometer (Digilab T30). Pressure readings were calibrated for verification every 6 h. One drop (50 μl) of local anesthetic (Benoxinate HCl, 0.4% Fischer [Isr] diluted 1:3 with sterile saline) was instilled into each eye prior to IOP measurements.

[3] = tested on: AMPA/kainate receptors; test: Effect on kainate responses in oocytes; assay type: biochemical, rat
[4] = tested on: voltage-dependent P-type calcium channels; test: Inhibition of voltage-dependent P-type calcium channels expressed in oocytes; assay type: biochemical, rat
[5] = tested on: GABA receptors; test: Effect on GABA responses in oocytes; assay type: biochemical, rat
[6] = tested on: cerebral ischemia in gerbils; test: Neurobehavioral scores in gerbils after bilateral common carotid artery occlusion; assay type: in vivo, Mongolian gerbils
Excerpt: Inhibition of ischemic neuronal damage in gerbils: Temporary blockage of the blood supply to the gerbil brain by surgical ligation of the two major arteries (common carotids) results in transient global forebrain ischemia. Temporary global ischemia produces a delayed, selective degeneration of neurons in the hippocampus, a brain structure essential for memory formation. The ability of various compounds to prevent hippocampal cell loss and the attendant memory deficits is considered a measure of their potency as neuroprotectants in ischemic conditions.
The data are presented as average differential scores between the initial score obtained 5 hrs post-ischemia and that obtained on each successive day. The drug was administered intravenously 30 min post-ischemia.
Mongolian gerbils (male), 65-70 gr (Tumblebrook Farm) underwent the ischemic procedure while anaesthetised with equithisine.
Common carotid arteries (CCA) were isolated and 3-0 silk suture material was positioned loosely round them. The tips of each loop were tied together, and the suture material was buried beside the trachea. The ventral neck incision was then sutured. In the following day, they were lightly anaesthetised with ether, the neck skin wounds were opened and both CCA were occluded for 10 minutes using small artery clips. During the ischemia and until the animals recovered (regaining righting reflexes), they were maintained in a warm state (36.5°-37.5° C. rectal temperature). Thirty minutes following onset of ischemia, animals were reanaesthetised (ether) and the appropriate drug was administered I.V. via the femoral vein.
Clinical evaluation. […] This was done every 24 hours, for the entire 96-hour period. […]
Statistics. Neuroclinical appearance was analyzed using Wilcoxon Rank Sum Test. The histopathological evaluation was analyzed using One-Way ANOVA followed by Duncan's Test.
Gerbils were scored for their clinical symptoms following the ischemic insult according to the system described by Rudolphi et al. (Table 4). Each animal was evaluated daily over 4 consecutive days (Day 1 being the day of CCA occlusion). […]

[7] = tested on: quisqualate-induced toxicity in primary cerebral cortical cell cultures; test: Protection of cortical neurons in culture from quisqualate-induced toxicity; assay type: cell-based; conditions: Rattus norvegicus, Cortical neurone; 10 μM compound; quisqualate 500 μM; read-out: % of cells rescued from quisqualate-induced toxicity
Protocol: The neuroprotective effects of the compounds of the invention were tested on neurons exposed to various excitotoxins in culture. The compounds tested included HU-259, HU-260, HU-270 and HU-271, which were all shown to have NMDA antagonist properties in mice (Example 13).
The test drugs were examined for their ability to protect neurons in culture from toxic effects of agonists of the different glutamate receptor subtypes (agonists of ionotropic and/or metabotropic glutamate receptors), e.g. NMDA, AMPA, kainate and quisqualate. The culture conditions and assay conditions were all performed as described in Eshhar et al. (NeuroReport 5, No. 3, 1993). In brief, primary cerebral cortical cell cultures were prepared from 18-20 day old rat fetuses by enzymatic dissociation. Resulting cell suspensions were plated on confluent cortical glial cell feder layer (prepared 2 weeks earlier by a similar method). […] Cell viability was determined morphologically following neuron specific enolase immunostaining of cells using the ABC biotin-avidin complex method, and determined quantitatively by measuring the extent of mitochondrial activity in living cells using the XTT-based assay. […] The density of color formation (O.D.), which is proportional to mitochondrial activity, was measured by a plate ELISA reader. The extent of neuroprotectant activity is expressed as % of cells rescued by the drugs tested.

Row | Compound | lipophilicity [1] | AUC (from instillation of treatment until return to baseline IOP) ([2]; contralateral eye) | contralateral eye pressure lowered by ([2]; contralateral eye, single dose application) | Max ΔIOP ([2]; contralateral eye) | time of maximal ocular hypotensive effect ([2]; post-application) | time at which pressure returned to baseline level ([2]; post-treatment) | duration of statistically significant reduction in IOP compared to vehicle ([2]; single dose 30 microliter 0.2% emulsion) | AUC (from instillation of treatment until return to baseline IOP) ([2]; treated eye) | Max ΔIOP ([2]; treated eye, single dose 0.2% emulsion) | Pressure dropped by (maximal ocular hypotensive effect) ([2]; treated right eye, 3 h post-application, P<0.01) | effect on kainate responses [3] | inhibition of activity of voltage-dependent P-type calcium channels [4] | effect on GABA responses [5] | neurobehavioral scores / clinical symptoms ([6]; 8 mg/kg i.v. 30 min post-ischemia) | animals showing no signs ([6]; three days post-ischemia) | animals showing only mild signs ([6]; three days post-ischemia) | inhibition at 10 µM [7]
1 | CCCCCCC(C)(C)c1cc(OC(C)=O)c([C@H]2C=C(C(=O)O)[C@H]3C[C@@H]2C3(C)C)c(OC(C)=O)c1 [(+)-4-[4-DMH-2,6 diacetoxyphenyl]-2-carboxy-6,6-dimethylbicyclo[3.1.1]hept-2-en] | very lipophilic | -7.8 ± 8.1 mmHg × hrs | 2.5±0.9 mmHg | -2.5 ± 0.9 mmHg | 3 h | 7 h | over five hours | -10.9 ± 10.9 mmHg × hrs | -3.2 ± 0.7 mmHg | 3.2±0.7 mmHg | no effect | did not inhibit | no effect | improvement in neurobehavioral scores; also recorded: statistically significant improvement compared to controls | 90% | 10% | –
2 | CCCCCCC(C)(C)c1cc(OC(C)=O)c([C@H]2C=C(C(=O)NCCO)[C@H]3C[C@@H]2C3(C)C)c(OC(C)=O)c1 [HU-271] | – | – | – | – | – | – | – | – | – | – | – | – | – | – | – | – | 37%
